Results taken from patent US8916711B2, “Imidazothiazole-chalcone derivatives as potential anticancer agents and process for the preparation thereof” (Council of Scientific and Industrial Research, priority 2009, dated 2014).
Like-named read-outs stand apart in the source and are kept apart here.

Experiments:
Type in all cases: cell-based
[1] = tested on: HS 578T; assay: NCI in vitro cytotoxicity (SRB, 48 h), Breast panel; settings: Homo sapiens, 48 h exposure
[2] = tested on: SF-295; assay: NCI in vitro cytotoxicity (SRB, 48 h), CNS panel; settings: Homo sapiens; SF-295, CNS; 48 h exposure
[3] = tested on: OVCAR-3; assay: NCI in vitro cytotoxicity (SRB, 48 h), Ovarian panel; settings: Homo sapiens; OVCAR-3, Ovarian; 48 h exposure
[4] = tested on: HCT-15; assay: NCI in vitro cytotoxicity (SRB, 48 h), Colon panel; settings: Homo sapiens; HCT-15, Colon; 48 h exposure
[5] = tested on: DU-145; assay: NCI in vitro cytotoxicity (SRB, 48 h), Prostate panel; settings: Homo sapiens; DU-145, Prostate; 48 h exposure
[6] = tested on: NCI-H522; assay: NCI in vitro cytotoxicity (SRB, 48 h), Non-small cell lung panel; settings: Homo sapiens, 48 h exposure
[7] = tested on: Ovarian cancer cell lines; assay: NCI in vitro cytotoxicity, whole panel; settings: Homo sapiens
[8] = tested on: A498; assay: NCI in vitro cytotoxicity (SRB, 48 h), Renal panel; settings: Homo sapiens, 48 h exposure
[9] = tested on: EKVX; assay: NCI in vitro cytotoxicity (SRB, 48 h), Non-small cell lung panel; settings: Homo sapiens, 48 h exposure
[10] = tested on: NCI/ADR-RES; assay: NCI in vitro cytotoxicity (SRB, 48 h), Ovarian panel; settings: Homo sapiens, 48 h exposure
[11] = tested on: TK-10; assay: NCI in vitro cytotoxicity (SRB, 48 h), Renal panel; settings: Homo sapiens; TK-10, Renal; 48 h exposure
[12] = tested on: HL-60(TB); assay: NCI in vitro cytotoxicity (SRB, 48 h), Leukemia panel; settings: Homo sapiens, 48 h exposure
Protocol: (§1) The imidazothiazole-chalcone hybrids 7a, 7e, 7f, 8f and 19e have been tested against sixty human tumour cell lines derived from nine cancer types (leukemia, non-small cell lung cancer, colon cancer, CNS cancer, melanoma, ovarian cancer, renal cancer, prostate cancer and breast cancer) as per NCI protocol. For each compound, dose response curves for individual cell lines have been measured at a minimum of five concentrations at 10 fold dilutions. A protocol of 48 h continuous drug exposure has been used, and a sulforhodamine B (SRB) protein assay was used to estimate cell viability or growth. The concentration for 50% cell growth inhibition (GI50), total cell growth inhibition (TGI, 0% growth) and 50% cell death (LC50, […]) compared with the control has been calculated (Table-1).

[13] = tested on: SR; assay: as above; settings: Homo sapiens
Protocol: as §1

[14] = tested on: sixty human tumour cell lines; assay: NCI in vitro cytotoxicity, all panels
[15] = tested on: MDA-MB-468; assay: NCI in vitro cytotoxicity (SRB, 48 h), Breast panel; settings: Homo sapiens; MDA-MB-468, Breast; 48 h exposure
[16] = tested on: NCI-H226; assay: NCI in vitro cytotoxicity (SRB, 48 h), Non-small cell lung panel; settings: Homo sapiens, 48 h exposure
[17] = tested on: MALME-3M; assay: NCI in vitro cytotoxicity (SRB, 48 h), Melanoma panel; settings: Homo sapiens, 48 h exposure
[18] = tested on: HCC-2998; assay: NCI in vitro cytotoxicity (SRB, 48 h), Colon panel; settings: Homo sapiens; HCC-2998, Colon; 48 h exposure
[19] = tested on: A549/ATCC; assay: NCI in vitro cytotoxicity (SRB, 48 h), Non-small cell lung panel; settings: Homo sapiens, 48 h exposure
[20] = tested on: MOLT-4; assay: NCI in vitro cytotoxicity (SRB, 48 h), Leukemia panel; settings: Homo sapiens; MOLT-4, Leukemia; 48 h exposure
[21] = tested on: SF-539; assay: NCI in vitro cytotoxicity (SRB, 48 h), CNS panel; settings: Homo sapiens; SF-539, CNS; 48 h exposure
[22] = tested on: OVCAR-5; assay: NCI in vitro cytotoxicity (SRB, 48 h), Ovarian panel; settings: Homo sapiens; OVCAR-5, Ovarian; 48 h exposure
[23] = tested on: ACHN; assay: NCI in vitro cytotoxicity (SRB, 48 h), Renal panel; settings: Homo sapiens, 48 h exposure
[24] = tested on: HOP-92; assay: NCI in vitro cytotoxicity (SRB, 48 h), Non-small cell lung panel; settings: Homo sapiens; HOP-92, Non-small cell lung; 48 h exposure
[25] = tested on: RXF 393; assay: NCI in vitro cytotoxicity (SRB, 48 h), Renal panel; settings: Homo sapiens; RXF 393, Renal; 48 h exposure
[26] = tested on: CNS cancer cell lines; assay: NCI in vitro cytotoxicity, whole panel; settings: Homo sapiens
[27] = tested on: SK-MEL-28; assay: NCI in vitro cytotoxicity (SRB, 48 h), Melanoma panel; settings: Homo sapiens; SK-MEL-28, Melanoma; 48 h exposure
[28] = tested on: UACC-25; assay: as above; settings: Homo sapiens; UACC-25, Melanoma; 48 h exposure
[29] = tested on: CCRF-CEM; assay: NCI in vitro cytotoxicity (SRB, 48 h), Leukemia panel; settings: Homo sapiens, 48 h exposure
[30] = tested on: Non-small-cell lung cancer cell lines; assay: NCI in vitro cytotoxicity, whole panel; settings: Homo sapiens
[31] = tested on: SK-MEL-2; assay: NCI in vitro cytotoxicity (SRB, 48 h), Melanoma panel; settings: Homo sapiens; SK-MEL-2, Melanoma; 48 h exposure
[32] = tested on: NCI-H460; assay: NCI in vitro cytotoxicity (SRB, 48 h), Non-small cell lung panel; settings: Homo sapiens, 48 h exposure
[33] = tested on: Leukemia cell lines; assay: NCI in vitro cytotoxicity, whole panel; settings: Homo sapiens
[34] = tested on: NCI-H23; assay: NCI in vitro cytotoxicity (SRB, 48 h), Non-small cell lung panel; settings: Homo sapiens, 48 h exposure
[35] = tested on: KM12; assay: NCI in vitro cytotoxicity (SRB, 48 h), Colon panel; settings: Homo sapiens, 48 h exposure

Question: How did the GI50 [1] turn out when `COc1ccc(C(=O)/C=C/c2c(C(F)(F)F)nc3sccn23)cc1OC` [Compound 8f, (E)-1-(3,4-dimethoxyphenyl)-3-(6-(trifluoromethyl)imidazo[2,1-b]thiazol-5-yl) prop-2-en-1-one] was run?
Answer: 2.51 µM

Question: What about the GI50 [2] of the same molecule?
Answer: 3.14 µM

Question: And the GI50 [3]?
Answer: 2.12 µM

Question: And the GI50 [4]?
Answer: 2.54 µM

Question: And the GI50 [5]?
Answer: 1.64 µM

Question: And the GI50 [6]?
Answer: 2.91 µM

Question: What about the GI50 ([7]; Ovarian, average of six to eight cell lines, read-out: Log10 GI50 (converted)) of the same molecule?
Answer: 2.95 µM

Question: What about the CC50 ([7]; Ovarian, average of six to eight cell lines, read-out: Log10 LC50 (converted)) of the same molecule?
Answer: 100 µM

Question: What about the GI50 ([7]; exposure period of at least 48 hrs, read-out: GI50, range over ovarian cell lines) of the same molecule?
Answer: 1.88 to 4.18 µM

Question: What about the GI50 [8] of the same molecule?
Answer: 7.58 µM

Question: And the GI50 [9]?
Answer: 4.43 µM

Question: And the GI50 [10]?
Answer: 1.88 µM

Question: And the GI50 [11]?
Answer: 8.76 µM

Question: What about the GI50 [12] of the same molecule?
Answer: 1 µM

Question: And the GI50 [13]?
Answer: 0.49 µM

Question: And the GI50 ([13]; 48 h exposure)?
Answer: 0.49 µM

Question: What about the GI50 ([14]; Homo sapiens, sixty cell lines, nine panels, read-out: GI50 against sixty cell lines in nine cell panels) of the same molecule?
Answer: < 9 µM

Question: What about the “Log10 TGI mean graph midpoint (MG_MID)” value ([14]; human tumour cell lines) of the same molecule?
Answer: −4.22

Question: And the “in vitro cytotoxicity, in words” value ([14]; human tumour cell lines)?
Answer: significant cytotoxicity

Question: And the GI50 ([14]; human tumour cell lines, read-out: Log10 GI50 mean graph midpoint (MG_MID) (converted))?
Answer: 3.09 µM

Question: And the CC50 ([14]; human tumour cell lines, read-out: Log10 LC50 mean graph midpoint (MG_MID) (converted))?
Answer: 100 µM

Question: And the GI50 [15]?
Answer: 6.18 µM

Question: What about the GI50 [16] of the same molecule?
Answer: 6.95 µM

Question: And the GI50 [17]?
Answer: 5.92 µM

Question: And the GI50 [18]?
Answer: 5.07 µM

Question: What about the GI50 [19] of the same molecule?
Answer: 4.65 µM

Question: And the GI50 [20]?
Answer: 2.22 µM

Question: What about the GI50 [21] of the same molecule?
Answer: 2.36 µM

Question: What about the GI50 [22] of the same molecule?
Answer: 4.18 µM

Question: What about the GI50 [23] of the same molecule?
Answer: 5.1 µM

Question: And the GI50 [24]?
Answer: 5.8 µM

Question: And the GI50 [25]?
Answer: 2.51 µM

Question: And the GI50 ([26]; CNS cell, exposure period of at least 48 hrs, read-out: GI50, range over CNS cell lines)?
Answer: 1.87 to 6.87 µM

Question: And the GI50 ([26]; CNS, average of six to eight cell lines, read-out: Log10 GI50 (converted))?
Answer: 3.39 µM

Question: And the CC50 ([26]; CNS, average of six to eight cell lines, read-out: Log10 LC50 (converted))?
Answer: ≥ 100 µM

Question: And the GI50 [27]?
Answer: 8.48 µM

Question: What about the GI50 [28] of the same molecule?
Answer: 7.77 µM

Question: And the GI50 [29]?
Answer: 2.33 µM

Question: And the GI50 ([30]; Non-small-cell lung, average of six to eight cell lines, read-out: Log10 GI50 (converted))?
Answer: 3.98 µM

Question: What about the CC50 ([30]; Non-small-cell lung, average of six to eight cell lines, read-out: Log10 LC50 (converted)) of the same molecule?
Answer: ≥ 100 µM

Question: And the GI50 ([30]; exposure period of at least 48 hrs, read-out: GI50, range over lung cell lines)?
Answer: 1.94 to 6.95 µM

Question: What about the GI50 [31] of the same molecule?
Answer: 4.08 µM

Question: And the GI50 [32]?
Answer: 1.94 µM

Question: And the GI50 ([33]; Leukemia, average of six to eight cell lines, read-out: Log10 GI50 (converted))?
Answer: 1.48 µM

Question: What about the CC50 ([33]; Leukemia, average of six to eight cell lines, read-out: Log10 LC50 (converted)) of the same molecule?
Answer: ≥ 100 µM

Question: What about the GI50 ([33]; exposure period of at least 48 hrs, read-out: GI50, range over leukemia cell lines) of the same molecule?
Answer: 0.49 to 2.33 µM

Question: And the GI50 [34]?
Answer: 2.78 µM

Question: And the GI50 [35]?
Answer: 1.97 µM
